Measured values published in publication PMC5569033 (2017).

Experiments:
[1] = tested on: Tyr1M1 (RNA, aptamer) GGAUGUAACUGAAUGAAAUGGUGAAGGACGGGUCCAGCCCUUGGCAGUCAACUCGUGCGAUCGUGAAAACGGGGCAAGAUGGCCUUACAGCGGUCAAUACGGGGGUCAUCAGAUAGGGAGGCCAGGAUAUGUUGAGUAGAGUGUGAGCUCCGUAACUAGUUACAUC; assay: dye fluorescence in droplets; settings: 200 mM KCl, 10 mM NaCl, 10 mM MgCl2; 100 mM Tris pH 7.5; 30 μM RNA, 3 μM dye; salmon sperm DNA; with secreted tyrosine
[2] = tested on: Spinach2-Streptavidin aptamer (Streptavidin (SA)) (RNA, aptamer) GAUGUAACUGAAUGAAAUGGUGAAGGACGGGUCCACGACCGACCAGAAUCAUGCAAGUGCGUAAGAUAGUCGCGGGCCGGGGUUGUUGAGUAGAGUGUGAGCUCCGUAACUAGUUACAUC; assay: dye fluorescence, plate reader; settings: 200 mM KCl, 10 mM NaCl, 1 mM MgCl2; 100 mM Tris pH 7.5, 25 °C, 14 h; 10 μM RNA, 2 μM dye; with streptavidin
[3] = tested on: Tyr1M1 (RNA, aptamer) GGAUGUAACUGAAUGAAAUGGUGAAGGACGGGUCCAGCCCUUGGCAGUCAACUCGUGCGAUCGUGAAAACGGGGCAAGAUGGCCUUACAGCGGUCAAUACGGGGGUCAUCAGAUAGGGAGGCCAGGAUAUGUUGAGUAGAGUGUGAGCUCCGUAACUAGUUACAUC; assay: Spinach sensor fluorescence turn-on; settings: 125 mM KCl, 5 mM MgCl2; 50 mM Tris-HCl pH 7.5; 2 μM DFHBI or DFHBI-1T; 1 mM ligand; 10 μM RNA

Structure (SMILES) | binding [1] | binding [2] | binding [3]
CC1=N/C(=C\c2cc(F)c(O)c(F)c2)C(=O)N1CC(F)(F)F | yes | yes | –
N[C@@H](Cc1ccc(O)cc1)C(=O)O | – | – | yes
